Experimental findings from US20260078120A1, “SUBSTITUTED PYRIDOPYRIMIDINONES” (MIRATI THERAPEUTICS, INC., priority 2022, published 2026) are described below.

For assay [1], the system named is T47D (PI3Kα H1047R mutant) cells. The assay can be described thus: CellTiter-Glo 2.0 luminescent cell viability assay, 72 hours, T47D cells. It counts as cell-based. The note with it: Homo sapiens, T47D, 72 h, T47D (PI3Kα H1047R mutant) cells, CellTiter-Glo, approximately 72 hours; read-out: T47D (H1047R mutant) Viability IC50. Summed up:
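Viability was measured by CellTiter-Glo 2.0 luminescence after approximately 72 h of compound exposure at 37° C. Plating was 1000 cells per well the day before dosing, with ten 1:4 dilutions from a 10 µM top concentration. Values as percent of vehicle were fitted by variable-slope log(inhibitor) regression to give IC50.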

Assay [2] concerns SKBR3 (PI3Kα wild type) cells. The assay can be described thus: CellTiter-Glo 2.0 luminescent cell viability assay, 72 hours, SKBR3 cells. It counts as cell-based. The following applies: Homo sapiens, SK-BR-3, 72 h, SKBR3 (PI3Kα wild type) cells, CellTiter-Glo, approximately 72 hours; read-out: SKBR3 (WT) Viability IC50. Summed up:
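Viability measured via CTG luminescence following roughly 72 hours of compound exposure at 37° C. Dosing used a 10 um starting concentration diluted 1:4 over 10 points; percent-of-vehicle data fitted with a variable-slope four-parameter model for IC50.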

As for `Cc1cc([C@@H](C)Nc2ccccc2C(=O)O)c2nc(NCC3CC3(F)F)c(C#N)c(=O)n2c1` (stereo partly drawn) [Example 11-158, 2-(((1R)-1-(3-cyano-2-(((2,2-difluorocyclopropyl)methyl)amino)-7-methyl-4-oxo-4H-pyrido[1,2-a]pyrimidin-9-yl)ethyl)amino)benzoic acid], the IC50 in assay [1] is 167 nM; in assay [2] it was greater than 10000 nM.
The matching figures for `Cc1cc([C@@H](C)Nc2ccccc2C(=O)O)c2nc(NCC3(C(F)(F)F)CC3)c(C#N)c(=O)n2c1` [Example 11-159, (R)-2-((1-(3-cyano-7-methyl-4-oxo-2-(((1-(trifluoromethyl)cyclopropyl)methyl)amino)-4H-pyrido[1,2-a]pyrimidin-9-yl)ethyl)amino)benzoic acid]: 176 nM and greater than 10000 nM.
With `Cc1cc([C@@H](C)Nc2ccccc2C(=O)O)c2nc(N[C@H](C3CC3)C(F)(F)F)c(C#N)c(=O)n2c1` [Example 11-160, 2-(((R)-1-(3-cyano-2-(((R)-1-cyclopropyl-2,2,2-trifluoroethyl)amino)-7-methyl-4-oxo-4H-pyrido[1,2-a]pyrimidin-9-yl)ethyl)amino)benzoic acid], the IC50 was 657 nM in assay [1] and greater than 10000 nM in assay [2].
As for `Cc1cc([C@@H](C)Nc2ccccc2C(=O)O)c2nc(N[C@@H](C3CC3)C(F)(F)F)c(C#N)c(=O)n2c1` [Example 11-161, 2-(((R)-1-(3-cyano-2-(((S)-1-cyclopropyl-2,2,2-trifluoroethyl)amino)-7-methyl-4-oxo-4H-pyrido[1,2-a]pyrimidin-9-yl)ethyl)amino)benzoic acid], the figures for the IC50 in assay [1] and in assay [2] were 1050 nM and greater than 10000 nM, respectively.
In the same order, the values of `Cc1cc([C@@H](C)Nc2ccccc2C(=O)O)c2nc(N[C@@H](C)C3CC3)c(C#N)c(=O)n2c1` [Example 11-164, 2-(((R)-1-(3-cyano-2-(((S)-1-cyclopropylethyl)amino)-7-methyl-4-oxo-4H-pyrido[1,2-a]pyrimidin-9-yl)ethyl)amino)benzoic acid] are 228 nM and greater than 10000 nM.
The matching figures for `Cc1cc([C@@H](C)Nc2ccccc2C(=O)O)c2nc(N[C@H](C)C3CC3)c(C#N)c(=O)n2c1` [Example 11-165, 2-(((R)-1-(3-cyano-2-(((R)-1-cyclopropylethyl)amino)-7-methyl-4-oxo-4H-pyrido[1,2-a]pyrimidin-9-yl)ethyl)amino)benzoic acid]: 485 nM and greater than 10000 nM.
As for `Cc1cc([C@@H](C)Nc2ccccc2C(=O)O)c2nc(N[C@@H](C)C3CC3)c(C)c(=O)n2c1` [Example 11-166, 2-(((R)-1-(2-(((S)-1-cyclopropylethyl)amino)-3,7-dimethyl-4-oxo-4H-pyrido[1,2-a]pyrimidin-9-yl)ethyl)amino)benzoic acid], the IC50 was 364 nM in assay [1] and greater than 10000 nM in assay [2].
In the same order, the values of `Cc1cc([C@@H](C)Nc2ccccc2C(=O)O)c2nc(N[C@H](C)C3CC3)c(C)c(=O)n2c1` [Example 11-167, 2-(((R)-1-(2-(((R)-1-cyclopropylethyl)amino)-3,7-dimethyl-4-oxo-4H-pyrido[1,2-a]pyrimidin-9-yl)ethyl)amino)benzoic acid] are 1180 nM and greater than 10000 nM.
The matching figures for `C[C@@H](Nc1ccccc1C(=O)O)c1cc(C(F)F)cn2c(=O)c(C#N)c(N3CCC(F)(F)CC3)nc12` [Example 11-168, (R)-2-((1-(3-cyano-7-(difluoromethyl)-2-(4,4-difluoropiperidin-1-yl)-4-oxo-4H-pyrido[1,2-a]pyrimidin-9-yl)ethyl)amino)benzoic acid]: 241 nM and greater than 10000 nM.
With `C[C@H](Nc1ccccc1C(=O)O)c1cc(C(F)F)cn2c(=O)c(C#N)c(N3CCC(F)(F)CC3)nc12` [Example 11-169, (S)-2-((1-(3-cyano-7-(difluoromethyl)-2-(4,4-difluoropiperidin-1-yl)-4-oxo-4H-pyrido[1,2-a]pyrimidin-9-yl)ethyl)amino)benzoic acid], the IC50 in assay [1] and in assay [2] was greater than 10000 nM in each case.
Turning to `CC(Nc1ccccc1C(=O)O)c1cc(C(F)F)cn2c(=O)c(C#N)c(N3CCC(F)(F)CC3)nc12` (centres unmarked) [Example 11-170, 2-((1-(3-cyano-7-(difluoromethyl)-2-(4,4-difluoropiperidin-1-yl)-4-oxo-4H-pyrido[1,2-a]pyrimidin-9-yl)ethyl)amino)benzoic acid], the results for the IC50 in assay [1] and in assay [2] were 166 nM and greater than 10000 nM, respectively.
Consider `Cc1c(N2CCC(F)(F)CC2)nc2c([C@@H](C)Nc3ccccc3C(=O)O)cc(C(F)F)cn2c1=O` [Example 11-171, (R)-2-((1-(7-(difluoromethyl)-2-(4,4-difluoropiperidin-1-yl)-3-methyl-4-oxo-4H-pyrido[1,2-a]pyrimidin-9-yl)ethyl)amino)benzoic acid], for which the IC50 in assay [1] was 227 nM; in assay [2] it was greater than 10000 nM.
`Cc1cc([C@@H](C)Nc2ccccc2C(=O)O)c2nc(N3CC4(CCN(c5ccc(C#N)cc5)CC4)C3)c(C#N)c(=O)n2c1` [Example 11-172, (R)-2-((1-(3-cyano-2-(7-(4-cyanophenyl)-2,7-diazaspiro[3.5]nonan-2-yl)-7-methyl-4-oxo-4H-pyrido[1,2-a]pyrimidin-9-yl)ethyl)amino)benzoic acid]: the IC50 is 210 nM in assay [1] and greater than 10000 nM in assay [2].
In the same order, the values of `Cc1cc([C@@H](C)Nc2ccccc2C(=O)O)c2nc(N3CCN(c4cn(C)nc4C(F)(F)F)CC3)c(C#N)c(=O)n2c1` [Example 11-173, (R)-2-((1-(3-cyano-7-methyl-2-(4-(1-methyl-3-(trifluoromethyl)-1H-pyrazol-4-yl)piperazin-1-yl)-4-oxo-4H-pyrido[1,2-a]pyrimidin-9-yl)ethyl)amino)benzoic acid] are 145 nM and greater than 10000 nM.
In the same order, the values of `Cc1cc([C@@H](C)Nc2ccccc2C(=O)O)c2nc(N3C[C@H]4C[C@@H]3CN4c3ccc(C#N)cc3)c(C#N)c(=O)n2c1` [Example 11-174, 2-(((R)-1-(3-cyano-2-((1R,4R)-5-(4-cyanophenyl)-2,5-diazabicyclo[2.2.1]heptan-2-yl)-7-methyl-4-oxo-4H-pyrido[1,2-a]pyrimidin-9-yl)ethyl)amino)benzoic acid] are 900 nM and greater than 10000 nM.
On to `Cc1cc([C@@H](C)Nc2ccccc2C(=O)O)c2nc(N3C[C@@H]4C[C@H]3CN4c3ccc(C#N)cc3)c(C#N)c(=O)n2c1` [Example 11-175, 2-(((R)-1-(3-cyano-2-((1S,4S)-5-(4-cyanophenyl)-2,5-diazabicyclo[2.2.1]heptan-2-yl)-7-methyl-4-oxo-4H-pyrido[1,2-a]pyrimidin-9-yl)ethyl)amino)benzoic acid], for which the IC50 was 3000 nM in assay [1] and greater than 10000 nM in assay [2].
In the same order, the values of `Cc1cc([C@@H](C)Nc2ccccc2C(=O)O)c2nc(N3C[C@H]4C[C@@H]3CN4c3ccc(C#N)cc3)c(C)c(=O)n2c1` [Example 11-176, 2-(((R)-1-(2-((1R,4R)-5-(4-cyanophenyl)-2,5-diazabicyclo[2.2.1]heptan-2-yl)-3,7-dimethyl-4-oxo-4H-pyrido[1,2-a]pyrimidin-9-yl)ethyl)amino)benzoic acid] are 722 nM and greater than 10000 nM.
For `Cc1cc([C@@H](C)Nc2ccccc2C(=O)O)c2nc(N3C[C@@H]4C[C@H]3CN4c3ccc(C#N)cc3)c(C)c(=O)n2c1` [Example 11-177, 2-(((R)-1-(2-((1S,4S)-5-(4-cyanophenyl)-2,5-diazabicyclo[2.2.1]heptan-2-yl)-3,7-dimethyl-4-oxo-4H-pyrido[1,2-a]pyrimidin-9-yl)ethyl)amino)benzoic acid], the IC50 in assay [1] was 1570 nM; in assay [2], greater than 10000 nM.
Take `Cc1cc([C@@H](C)Nc2ccccc2C(=O)O)c2nc(N3C4CNCC3C4)c(C#N)c(=O)n2c1` [Example 11-178, 2-(((1R)-1-(2-(3,6-diazabicyclo[3.1.1]heptan-6-yl)-3-cyano-7-methyl-4-oxo-4H-pyrido[1,2-a]pyrimidin-9-yl)ethyl)amino)benzoic acid]: the values for the 50% inhibitory concentration (IC50) in assay [1] and in assay [2] were no less than 10000 nM and greater than 10000 nM, respectively.
In the same order, the values of `Cc1cc([C@@H](C)Nc2ccccc2C(=O)O)c2nc(N3C4CC3CN(c3ccc(C#N)cc3)C4)c(C#N)c(=O)n2c1` [Example 11-179, 2-(((1R)-1-(3-cyano-2-(3-(4-cyanophenyl)-3,6-diazabicyclo[3.1.1]heptan-6-yl)-7-methyl-4-oxo-4H-pyrido[1,2-a]pyrimidin-9-yl)ethyl)amino)benzoic acid] are 1530 nM and greater than 10000 nM.
The matching figures for `Cc1cc([C@@H](C)Nc2ccccc2C(=O)O)c2nc(N3C4CNCC3C4)c(C)c(=O)n2c1` [Example 11-180, 2-(((1R)-1-(2-(3,6-diazabicyclo[3.1.1]heptan-6-yl)-3,7-dimethyl-4-oxo-4H-pyrido[1,2-a]pyrimidin-9-yl)ethyl)amino)benzoic acid]: greater than 10000 nM and greater than 10000 nM.
The matching figures for `Cc1cc([C@@H](C)Nc2ccccc2C(=O)O)c2nc(N3C4CC3CN(c3ccc(C#N)cc3)C4)c(C)c(=O)n2c1` [Example 11-181, 2-(((1R)-1-(2-(3-(4-cyanophenyl)-3,6-diazabicyclo[3.1.1]heptan-6-yl)-3,7-dimethyl-4-oxo-4H-pyrido[1,2-a]pyrimidin-9-yl)ethyl)amino)benzoic acid]: greater than 10000 nM and greater than 10000 nM.
